What was measured:
[1] = tested on: human vaginal epithelial cells of the A-431 cell line; assay type: cell-based
Experimental: Test of totarol impact on the human vaginal epithelial cells of the A-431 cell line (ATCC® The study was carried out using the following test: Annexin-V-Fluos (Roche, Mannheim, Germany), during incubation for 2, 8 and 24 hours, under in vitro conditions, according to the instructions of the test's manufacturer. The totarol sample was prepared by dissolution of 3 mg of totarol in 3 ml of 100% DMI.
The cultivation time for the A-431 cell line was 20 days. The culture was carried out at a temperature of 37° C. in an atmosphere containing 10% CO2, on a DMEM culture medium (Institute of Immunology and Experimental Therapy PAS [IITD PAN], Wroclaw), with an addition of 10% of foetal bovine serum (FBS, Sigma-Aldrich). The culture fluid were being replaced regularly every 48 hours. After achieving a decantable growth or the so-called “monolayer”, the cells were passaged using (for approx. 10 min) 0.25% trypsin (Sigma-Aldrich). Then, the obtained tissue line was passed to 24-well plates (TPP), adjusting their densities to the value of 5×10^5 per well. The tissue culture of the studied lines was carried out for 3 next days on the surface of sterile microscope slides placed on the bottom of a 24-well plate, until a decantable growth was obtained on the surface of the microscope slides. After obtaining the so-called “monolayer”, the cells were washed with PBS without Ca^2+ and Mg^2+ ions (IITD PAN, Wroclaw), and poured with 700 µl of fresh DMEM medium with 10% FBS, together with 300 μl of properly prepared totarol. • Negative control: 1000 μl of fresh DMEM medium with 10% FBS. • Solvent control: 700 μl of fresh DMEM medium with 10% FBS+300 μl of DMI solvent. • Necrosis positive control: 900 μl of fresh DMEM medium with 10% FBS+100 μl H2O2 (30%). The proper examination using the Annexin-V-Fluos test causes green staining of apoptotic cells. […] This dye has an ability to penetrate the cell's interior freely only through a damaged cellular membrane, staining the interior red. In the case of a lack of damages of the cellular membrane, propidium iodide remains on its surface, forming a characteristic red “halo” around the cell. After a corresponding study time, i.e. 2, 8, and 24 hours, the culture fluid was removed, the content was washed with PBS (pre-heated to a temperature of 37° C.) twice. Then, 100 μl of the fluorescent stains mixture including in the Annexin-V-Fluos (Roche) kit were applied on the surface of each microscope slide (placed in a culture well) and additionally, Hoechst stain was used (cellular DNA staining). The staining procedure was carried out according to the manufacturer's recommendations. The culture together with the stains applied onto it were incubated at room temperature for 20 min. The intensity of light emitted by the cells stained with the individual stains was observed using a fluorescent microscope at the wavelength of 494-520 nm, using 400× magnification. The cells were counted in five visual fields, and the results were averaged. The reliability of the tests carried out is confirmed by hydrogen peroxide used as a positive control, causing a distinct necrosis process already after 2 hours of incubation. Data analyses were carried out on the basis of the average number of cells from five visual fields in the individual times (2, 8, and 24 h). The results are presented in Table 6 and in the form of photographic documentation—FIGS. 1, 2, 3, 4.

Gardnerella vaginalis = settings: cited from earlier work

Alive cells [1]	Structure (SMILES)	Apopt. cells [1]	Necrot. Cells [1]	Necrot. cells [1]	apoptosis and necrosis in epithelial cells, photographic documentation [1]	metronidazole-resistant strain percentage (Gardnerella vaginalis; Goldstein et al., 1993) [%]	percentage of resistant strains (Gardnerella vaginalis; Goldstein et al., 2002) [%]	studied strains characterised by resistance to metronidazole (Gardnerella vaginalis; Poland, 67 strains isolated from 604 females (46 out of 67)) [%]	resistance of Gardnerella vaginalis strains to metronidazole (Gardnerella vaginalis; studies published in 2007) [%]
0	OO [Necrosis positive control, reference compound]	0	100	100	Necrotic cells				
	Cc1ncc([N+](=O)[O-])n1CCO [metronidazole]					20	29	68.7	70

— patent publication US11534412B2, “Application of totarol and pharmaceutical composition containing totarol” (Emergopharm SP. Z O.O. SP.K., priority 2017, dated 2022)
